This is an account of results in US12577529B2, “Methods for producing neural cells” (QUIVER HOLDINGS INC., priority 2021, dated 2026).

For assay [1], the system named is NGN2 neurons (human iPS cell-derived excitatory neurons). The assay is described as follows: Optopatch excitability assay in NGN2 neurons. The class given is cell-based. From the text:
To characterize the intrinsic excitability activity of human iPS cell-derived excitatory neurons with the Optopatch platform the two iPS cell lines, “11a” and “20b”, from Example 1 were used. These two iPS cell lines were derived from two neurologically healthy male subjects. The 11a and 20b iPS cells are converted into excitatory neurons using a transcriptional programming approach whereby the pro-neuronal transcription factor NEUROGENIN2 (NGN2) is overexpressed using doxycycline responsive lentiviral constructs as described in Example 1. This process drives the rapid conversion of iPS cells into neurons that resemble cortical excitatory neurons.
The resulting neurons are cryopreserved and subsequently thawed.
The thawed cells are co-cultured with primary rodent glia to facilitate neuronal electrophysiological maturation. To enable Optopatch measurements, the cells are transduced with lentiviral constructs expressing Optopatch components driven by the neuronal excitatory promoter CAMK2A and signals are recorded from the cells 2 weeks later. At the time of Optopatch measurements, the NGN2 excitatory neuron are homogeneous and electrophysiologically active, yielding highly stereotyped and reproducible data across cells, dishes, differentiation rounds and cell lines.
Optopatch measurements are carried out in a custom-built ultra-widefield fluorescence microscope, as described herein. Using this platform, intrinsic excitability properties are recorded for 11a and 20b NGN2 neuronal cultures at DIV25 in the presence of synaptic blockers NBQX, D-AP5 and Gabazine to block AMPA, NMDA and GABA currents, respectively. A custom blue light stimulus protocol of three 500 ms blue light steps of increasing intensity (1, 15 and 75 mW/cm^2) followed by two 2 second ramps of linearly increasing intensity (0.5-10 mW/cm^2 and 0.5-110 mW/cm^2) is used to elicit a range of activity from individual neurons. ˜50 to 100 neurons are simultaneously stimulated and recorded in a single field of view.
High signal-to-noise ratio (SNR) fluorescence-time traces are generated, and action potentials can be detected with high fidelity. Individual action potentials are detected for each of the hundreds of neurons and recorded with Optopatch and plotted on a spike raster plot, where each row represents a single neuron, and each dot represents a detected spike. While individual neurons show a diversity of spiking behavior throughout the stimulus protocol, the average firing rate of the population is remarkably similar for both cell lines.
The sensitivity of an excitability assay for detecting pharmacological modulation in NGN2 neurons using the well-characterized compound quinidine, which is reported to increase spike width and reduce spike activity is tested. […] These changes can be observed in the individual traces at 10 μM and 30 μM quinidine.
Additional quantification of both the response to quinidine and retigabine in is determined using an Optopatch excitability assay. Quinidine has been reported to block several voltage-, Na^+ and Ca^++ gated potassium channels (KNa1.1, KCa5.1, K2P16.1, Kv1.5, Kv1.7, Kv10.1, Kv10.2), including two-pore forming channels as well as voltage gated Na^+ channels.

Assay [2] has as its target Kv7.2 (Homo sapiens, UniProt O43526). As to conditions: read-out: Kv7.2 EC50; cited from earlier work.
[3] abbreviates: maximum concentration tested (30 μM).

Sequence of Kv7.2 (O43526 whole entry): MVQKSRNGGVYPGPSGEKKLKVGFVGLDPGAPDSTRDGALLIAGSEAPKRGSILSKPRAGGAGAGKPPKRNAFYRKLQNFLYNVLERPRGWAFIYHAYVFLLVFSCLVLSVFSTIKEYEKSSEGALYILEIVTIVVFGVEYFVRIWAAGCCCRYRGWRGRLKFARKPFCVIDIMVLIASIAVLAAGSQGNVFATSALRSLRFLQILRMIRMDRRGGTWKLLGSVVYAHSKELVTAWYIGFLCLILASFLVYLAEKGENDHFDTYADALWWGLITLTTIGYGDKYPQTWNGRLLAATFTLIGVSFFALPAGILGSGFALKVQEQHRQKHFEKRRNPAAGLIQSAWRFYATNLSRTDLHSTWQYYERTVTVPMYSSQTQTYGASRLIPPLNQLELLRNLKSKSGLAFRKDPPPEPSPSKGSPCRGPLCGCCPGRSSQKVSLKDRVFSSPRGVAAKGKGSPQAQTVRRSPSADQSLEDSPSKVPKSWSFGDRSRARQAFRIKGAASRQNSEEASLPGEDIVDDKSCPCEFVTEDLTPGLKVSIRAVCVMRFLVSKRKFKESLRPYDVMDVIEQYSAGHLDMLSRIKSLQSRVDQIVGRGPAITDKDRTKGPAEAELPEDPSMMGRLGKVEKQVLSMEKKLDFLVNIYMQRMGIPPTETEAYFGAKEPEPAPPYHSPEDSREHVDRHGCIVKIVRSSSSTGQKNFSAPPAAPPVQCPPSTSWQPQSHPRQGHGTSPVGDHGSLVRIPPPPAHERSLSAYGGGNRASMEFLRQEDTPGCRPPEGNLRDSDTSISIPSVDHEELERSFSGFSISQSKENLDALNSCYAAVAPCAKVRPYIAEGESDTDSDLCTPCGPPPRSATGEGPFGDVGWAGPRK

For `C=C[C@H]1C[N@@]2CC[C@H]1C[C@@H]2[C@@H](O)c1ccnc2ccc(OC)cc12` [quinidine], the “changes to spike waveform and firing rate” value in assay [1] (acute addition, observed in individual traces at 10 μM and 30 μM) is “dramatic changes to both the spike waveform and firing rate”. For the same compound, the “broadening of the spikes” value in assay [1] (concentration dependent) was “concentration dependent broadening of the spikes”. Also, the “mean firing rate (spike rate) versus vehicle” value in assay [1] (different concentrations, with increased blue light stimulus) is “dramatic reduction in spike rate”. The spike rate result in assay [1] (higher stimulation intensities (15 and 75 mW/cm^2)) is reported as “concentration dependent reduction in the spike rate”. Also, in assay [1] (setting [3]), the “magnitude of the AhP depth (measured from the baseline fluorescence before the action potential)” value is on record as “decreases”, the “spike rise time (measured from start to peak of the action potential)” value was “increases”, the “spike width (measured from the base of the action potential)” value was “increases” and the “time to the maximum of the after hyperpolarization (AhP) depth” value is listed as “increases”.
`CCOC(=O)Nc1ccc(NCc2ccc(F)cc2)cc1N` [retigabine]: the EC50 (usually the concentration at which the effect is half-maximal) in assay [2] was 2.5 µM.
